# Measured values published in patent US20090270361A1, “Substituted pyrazole derivatives and use thereof” (Takeda Pharmaceutical Company Limited, priority 2008, published 2009).
# Numbering of substitutions follows the chain as printed. Read-outs that look alike come from different tables or passages of the source.
# Tests used:
# [1] = target: T1, wild type androgen receptor (AR) (Homo sapiens, UniProt P10275); experiment: AR-binding inhibition test (wild type), radio-labeled Mibolerone displacement; conditions: read-out: inhibition rate, wild type
# T1 sequence (P10275 1-920): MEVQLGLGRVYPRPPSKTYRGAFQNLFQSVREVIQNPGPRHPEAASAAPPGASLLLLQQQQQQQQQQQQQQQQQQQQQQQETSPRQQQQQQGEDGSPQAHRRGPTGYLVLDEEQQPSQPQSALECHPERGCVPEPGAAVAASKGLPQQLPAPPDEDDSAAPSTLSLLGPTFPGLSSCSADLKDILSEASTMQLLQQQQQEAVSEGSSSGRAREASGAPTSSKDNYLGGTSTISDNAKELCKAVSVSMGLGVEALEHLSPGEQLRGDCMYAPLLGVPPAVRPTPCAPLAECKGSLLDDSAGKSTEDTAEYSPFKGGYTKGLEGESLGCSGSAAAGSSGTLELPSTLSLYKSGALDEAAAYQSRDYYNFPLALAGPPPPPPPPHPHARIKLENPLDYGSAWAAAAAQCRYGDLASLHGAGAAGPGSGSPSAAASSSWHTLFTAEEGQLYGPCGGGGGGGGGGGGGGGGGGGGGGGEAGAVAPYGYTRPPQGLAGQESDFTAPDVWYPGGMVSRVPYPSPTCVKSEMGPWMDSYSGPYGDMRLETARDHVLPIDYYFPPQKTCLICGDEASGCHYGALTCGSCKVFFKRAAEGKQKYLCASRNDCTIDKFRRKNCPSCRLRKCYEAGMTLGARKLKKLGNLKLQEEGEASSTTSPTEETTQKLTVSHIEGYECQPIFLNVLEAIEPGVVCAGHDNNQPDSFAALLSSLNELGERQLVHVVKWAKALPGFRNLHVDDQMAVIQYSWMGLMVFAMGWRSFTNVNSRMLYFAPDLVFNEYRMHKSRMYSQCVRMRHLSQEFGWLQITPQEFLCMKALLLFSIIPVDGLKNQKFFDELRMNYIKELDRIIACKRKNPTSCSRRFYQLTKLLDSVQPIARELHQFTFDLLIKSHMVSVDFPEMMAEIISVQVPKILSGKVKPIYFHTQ
# Description: (§1) AR-Binding Inhibition Test (Wild Type and LNCaP Type)
# (§2) To a solution of wild type or LNCaP type mutant androgen receptor (AR) was added 3 nM radio-labeled Mibolerone and final concentration 1 μM of the compound. The mixture was incubated at 4° C. for 3 hours, and B (Bound) and F (Free) Mibolerones were separated by the dextran/charcoal method. The label count of B was measured and the inhibition rate of the compound was calculated.
# [2] = target: T2, LNCaP type mutant androgen receptor (AR) (Homo sapiens, UniProt P10275, T878A); experiment: AR-binding inhibition test (LNCaP type), radio-labeled Mibolerone displacement; conditions: read-out: inhibition rate, LNCaP type
# T2 sequence (P10275 1-920 T878A): T1 sequence (P10275 1-920) with T878A
# Description: as §1, §2
# [3] = test system: Human prostate cancer cells LNCaP-FGC; experiment: Prostate specific antigen (PSA) production inhibition test in prostate cancer cells; type: cell-based; conditions: for inhibition at 1 µM: Homo sapiens, 72 h, read-out: PSA production inhibitory rate (%)
# [4] = target: T3, mutant AR (W741C) (Homo sapiens, UniProt P10275, W742C); experiment: AR transcription inhibition test (luciferase reporter in Cos-7 cells); type: cell-based; conditions: compound 1 μM; DHT 0.1 μM; Cos-7 cells cotransfected with mutant AR (W741C) and androgen responsive luciferase reporter; 24 hr; relative to control (0.1 μM DHT); read-out: AR transcription inhibitory rate (%)
# T3 construct: expressed in transfected cells; host or cells: Cos-7
# T3 sequence (P10275 1-920 W742C): T1 sequence (P10275 1-920) with W742C
# Description: AR Transcription Inhibition Test
# Cos-7 cells (5,000,000 cells) were inoculated to a flask, and incubated in a culture medium (DMEM +10% Dextran Charcoal (DCC)-Fetal Bovine Serum (FBS) and 2 mM glutamine) for 24 hours. Then, a vector DNA harboring mutant AR (W741C) and a vector DNA containing a luciferase gene bound at the downstream of an androgen responsive promoter were cotransfected by a liposome method. After 4 hr, the medium was changed and, after culture for 3 hr, DHT (dihydrotestosterone) at the final concentration of 0.1 μM and the compound at the final concentration of 1 μM were added. After further culture for 24 hr, the luciferase activity was measured, and the AR transcription inhibitory activity of the compound was examined.
# [5] = compound final concentration 1 μM, 3 nM radio-labeled Mibolerone, 4° C., 3 hours, dextran/charcoal method
SMILES,inhibition at 1 µM [1] [%],inhibition at 1 µM [2] [%],inhibition at 1 µM [3] [%],inhibition at 1 µM [4] [%],also measured
"Cc1nn(-c2ccc(C#N)c(Cl)c2)c(C)c1Cc1ccc(C(=O)NCC(O)CO)cc1 (racemic) [Example 321, (±)-4-{[1-(3-chloro-4-cyanophenyl)-3,5-dimethyl-1H-pyrazol-4-yl]methyl}-N-(2,3-dihydroxypropyl)benzamide]",78,84,91,38,
"Cc1nn(-c2ccc(C#N)c(Cl)c2)c(C)c1Cc1ccc(C(=O)N(C)CCO)cc1 [Example 296, 4-{[1-(3-chloro-4-cyanophenyl)-3,5-dimethyl-1H-pyrazol-4-yl]methyl}-N-(2-hydroxyethyl)-N-methylbenzamide]",52,64,79,39,
"Cc1nn(-c2ccc(C#N)c(Cl)c2)c(C)c1Cc1ccc(C(=O)N2CC[C@H](O)C2)cc1 [Example 332, 2-chloro-4-[4-(4-{[(3S)-3-hydroxypyrrolidin-1-yl]carbonyl}benzyl)-3,5-dimethyl-1H-pyrazol-1-yl]benzonitrile]",72,78,84,22,
"Cc1nn(-c2ccc(C#N)c(Cl)c2)c(C)c1Cc1ccc(-c2nnc(C(N)=O)o2)cc1 [Example 350, 5-(4-{[1-(3-chloro-4-cyanophenyl)-3,5-dimethyl-1H-pyrazol-4-yl]methyl}phenyl)-1,3,4-oxadiazole-2-carboxamide]",87,92,101,93,
"Cc1nn(-c2ccc(C#N)c(Cl)c2)c(C)c1Cc1ccc(C(=O)NC(C)(C)C)cc1 [Example 351, N-tert-butyl-4-{[1-(3-chloro-4-cyanophenyl)-3,5-dimethyl-1H-pyrazol-4-yl]methyl}benzamide]",,,109,,
"Cc1nn(-c2ccc(C#N)c(Cl)c2)c(C)c1Cc1ccc(C(=O)N2CCC(O)CC2)cc1 [Example 355, 2-chloro-4-(4-{4-[(4-hydroxypiperidin-1-yl)carbonyl]benzyl}-3,5-dimethyl-1H-pyrazol-1-yl)benzonitrile]",47,51,117,23,
"Cc1nn(-c2ccc(C#N)c(Cl)c2)c(C)c1Cc1ccc(C(=O)NCC(C)(C)O)cc1 [Example 356, 4-{[1-(3-chloro-4-cyanophenyl)-3,5-dimethyl-1H-pyrazol-4-yl]methyl}-N-(2-hydroxy-2-methylpropyl)benzamide]",,,98,,
"Cc1nn(-c2ccc(C#N)c(Cl)c2)c(C)c1Oc1ccc(C(=O)N2CCOCC2)cc1 [Example 357, 2-chloro-4-{3,5-dimethyl-4-[4-(morpholin-4-ylcarbonyl)phenoxy]-1H-pyrazol-1-yl}benzonitrile]",,,100,,
"Cc1nn(-c2ccc(C#N)c(Cl)c2)c(C)c1Cc1ccc(C(=O)N2CC(O)C2)cc1 [Example 363, 2-chloro-4-(4-{4-[(3-hydroxyazetidin-1-yl)carbonyl]benzyl}-3,5-dimethyl-1H-pyrazol-1-yl)benzonitrile]",73,79,100,23,
"Cc1nn(-c2ccc(C#N)c(Cl)c2)c(C)c1Oc1ccc(C(=O)N2CCS(=O)(=O)CC2)cc1 [Example 367, 2-chloro-4-(4-{4-[(1,1-dioxidethiomorpholin-4-yl)carbonyl]phenoxy}-3,5-dimethyl-1H-pyrazol-1-yl)benzonitrile]",,,,24,"inhibition at 1 µM [1, 5]: 49%; inhibition at 1 µM [2, 5]: 77%; inhibition at 1 µM ([3]; compound 1 μM, testosterone final concentration 0.1 ng/m, PSA in culture supernatant after 3 days by ELISA, testosterone non-addition group = 100%, testosterone addition group = 0%): 109%"
"Cc1nn(-c2ccc(C#N)c(Cl)c2)c(C)c1Oc1ccc(NC(=O)C(C)(C)C)cn1 [Example 455, N-(6-{[1-(3-chloro-4-cyanophenyl)-3,5-dimethyl-1H-pyrazol-4-yl]oxy}pyridin-3-yl)-2,2-dimethylpropanamide]",,,108,,
"CC(O)(CS(=O)(=O)c1ccc(F)cc1)C(=O)Nc1ccc(C#N)c(C(F)(F)F)c1 (stereo not drawn) [bicartamide, reference compound]",,,,,PSA production inhibitory rate (%) ([3]; 1 µM): 75%
